# From PubChem BioAssay AID1963970 (Molecular Pharmacology Branch, DTP, NCI, 2024)
# Test system: 931267-113-T-J1-PDC multicell spheroid viability
# Test: Anticancer human tumor 931267-113-T-J1-PDC patient-derived colon adenocarcinoma cell line growth inhibition [PI3K]
# Settings: for IC50: curve of first compound; for viability, T/C: stronger effect = lower value
# Description: Combinatorial screen of targeted agents with the PI3K inhibitors inavolisib, alpelisib, duvelisib, and copanlisib in multi-cell type tumor spheroids
# A high-throughput screen of multi-cell type tumor spheroids was designed to identify active combinations of targeted small molecules and PI3K pathway inhibitors. Complex spheroids include a stromal component modeled by human endothelial cells (HUVEC) and fibroblasts modeled by human mesenchymal stem cells (MSCs). The concentration ranges selected for each drug and investigational agent were based upon clinically achievable concentrations if the clinical Cmax of the agent was known.
# Compounds. The drugs and investigational agents: inavolisib (NSC800729), alpelisib (NSC765974), duvelisib (NSC772469), copanlisib (NSC816437), ipatasertib (NSC767898), afuresertib (NSC778305), talazoparib (NSC767125), sapanisertib (NSC764658), selumetinib (NSC741078), tovorafenib (DAY101, NSC766906), vemurafenib (NSC761431), ravoxertinib (NSC781343), sotorasib (NSC818433), MRTX1133 (NSC 836407), abemaciclib (NSC 768073), palbociclib (NSC758247), venetoclax (NSC 766270), SY5609 (NSC837396), enzalutamide (NSC755605), and darolutamide (NSC825331), were obtained from the National Cancer Institute (NCI) Developmental Therapeutics Program Chemical Repository. The FDA-approved anticancer drug set is available from the NCI Developmental Therapeutics Program. […] The stock solutions were prepared in dimethyl sulfoxide (DMSO, Sigma-Aldrich, St. Louis, MO, cat. D2650) at 800-fold the tested concentration and stored at -70 degrees C prior to their use. All drugs and investigational agents were tested over a range starting from a high concentration at or near the clinical Cmax and decreasing in half-log increments. If the clinical Cmax for an agent had not been determined, the highest concentration tested was 10 microM.
# Cell Culture. All cells were maintained in an incubator at 37 degrees C and 5% CO2 with 95% humidity. The PDC lines were cultured according to standard operating procedures established by the NCI PDMR (https://pdmr.cancer.gov/sops/default.htm). All PDCs were thawed and cultured in Matrigel-coated flasks prepared with a working solution of 1X Ham's F-12 nutrient mix, without supplementation (Invitrogen, Waltham, MA, cat. 11765054), 100 U/mL penicillin-streptomycin (Invitrogen, cat. 15140122), and 2.5% Matrigel (Corning Inc., Corning, NY, cat. 354248) for the first three passages. The 354836-022-R-J1-PDC, 475296-252-R-J1-PDC, and 997726-040-R-J2-PDC lines were cultured in 6A media, which includes advanced DMEM/F-12 (Thermo Fisher Scientific, cat. 12634028), 10 mM HEPES (Thermo Fisher Scientific, cat. 15630080), 1X GlutaMAX supplement (Thermo Fisher Scientific, cat. 35050061), 0.1 mg/mL primocin (InvivoGen, San Diego, CA, cat. ant-pm-2), 10% defined fetal bovine serum, heat inactivated (HyClone Laboratories Inc., Logan, UT, cat. SH30070.03HI), 50% L-WRN conditioned media (ATCC, cat. CRL-3276), 1.25 mM N-Acetyl-L-cysteine (Sigma-Aldrich, cat. A9165), 10 mM nicotinamide (Sigma-Aldrich, cat. N0636), 1X B-27 supplement (Thermo Fisher Scientific, cat. 17504044), 1X N-2 supplement (Thermo Fisher Scientific, cat. 17502048), and 10 microM Y-27632 dihydrochloride (Tocris Bioscience, Bristol, United Kingdom, cat. 1254). The 624824-186-R-J2-PDC line was cultured in 6C/Colon 1B media, which includes all 6A media components plus 50 ng/mL human EGF recombinant protein (Thermo Fisher Scientific, cat. PHG0311). […]
# [1] = second compound 0.00316 µM, first compound 0.0316 µM
# [2] = second compound 0.00316 µM, first compound 0.1 µM
# [3] = second compound 0.00316 µM, first compound 0.316 µM
# [4] = second compound 0.00316 µM, first compound 1 µM
# [5] = second compound 0.00316 µM, first compound 3.16 µM
# [6] = second compound 0.00316 µM, first compound 10 µM
# [7] = second compound 0.01 µM, first compound 0.0316 µM
# [8] = second compound 0.01 µM, first compound 0.1 µM
# [9] = second compound 0.01 µM, first compound 0.316 µM
# [10] = second compound 0.01 µM, first compound 1 µM
# [11] = second compound 0.01 µM, first compound 3.16 µM
# [12] = second compound 0.01 µM, first compound 10 µM
# [13] = second compound 0.0316 µM, first compound 0.0316 µM
# [14] = second compound 0.0316 µM, first compound 0.1 µM
# [15] = second compound 0.0316 µM, first compound 0.316 µM
# [16] = second compound 0.0316 µM, first compound 1 µM
# [17] = second compound 0.0316 µM, first compound 3.16 µM
# [18] = second compound 0.0316 µM, first compound 10 µM
# [19] = second compound 0.1 µM, first compound 0.0316 µM
# [20] = second compound 0.1 µM, first compound 0.1 µM
# [21] = second compound 0.1 µM, first compound 0.316 µM
# [22] = second compound 0.1 µM, first compound 1 µM
# [23] = second compound 0.1 µM, first compound 3.16 µM
# [24] = second compound 0.1 µM, first compound 10 µM
# [25] = second compound 0.316 µM, first compound 0.0316 µM
# [26] = second compound 0.316 µM, first compound 0.1 µM
# [27] = second compound 0.316 µM, first compound 0.316 µM
# [28] = second compound 0.316 µM, first compound 1 µM
# [29] = second compound 0.316 µM, first compound 3.16 µM
# [30] = second compound 0.316 µM, first compound 10 µM
# [31] = second compound 1 µM, first compound 0.0316 µM
# [32] = second compound 1 µM, first compound 0.1 µM
# [33] = second compound 1 µM, first compound 0.316 µM
# [34] = second compound 1 µM, first compound 1 µM
# [35] = second compound 1 µM, first compound 3.16 µM
# [36] = second compound 1 µM, first compound 10 µM
# 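Also: viability read 7 days after compound addition.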
smiles,measurement,setting,value
CC1(C)CCC(CN2CCN(c3ccc(C(=O)NS(=O)(=O)c4ccc(NCC5CCOCC5)c([N+](=O)[O-])c4)c(Oc4cnc5[nH]ccc5c4)c3)CC2)=C(c2ccc(Cl)cc2)C1 + CC(Nc1ccc2c(c1)OCCn1cc(N3C(=O)OCC3C(F)F)nc1-2)C(N)=O,IC50,second compound 0.00316 µM,6.16 µM
same,IC50,second compound 0.01 µM,6.33 µM
same,IC50,second compound 0.0316 µM,5.56 µM
same,IC50,second compound 0.1 µM,5.22 µM
same,IC50,second compound 0.316 µM,4.86 µM
same,IC50,second compound 1 µM,4.21 µM
same,"viability, T/C",[1],91.7%
same,"viability, T/C",[2],102%
same,"viability, T/C",[3],105%
same,"viability, T/C",[4],106%
same,"viability, T/C",[5],94.3%
same,"viability, T/C",[6],17.5%
same,"viability, T/C",[7],104%
same,"viability, T/C",[8],98.5%
same,"viability, T/C",[9],97.5%
same,"viability, T/C",[10],107%
same,"viability, T/C",[11],96.2%
same,"viability, T/C",[12],19.3%
same,"viability, T/C",[13],112%
same,"viability, T/C",[14],104%
same,"viability, T/C",[15],95.8%
same,"viability, T/C",[16],91.4%
same,"viability, T/C",[17],87.4%
same,"viability, T/C",[18],14.5%
same,"viability, T/C",[19],94.2%
same,"viability, T/C",[20],88.2%
same,"viability, T/C",[21],91.5%
same,"viability, T/C",[22],97.9%
same,"viability, T/C",[23],78.2%
same,"viability, T/C",[24],13.7%
same,"viability, T/C",[25],81.7%
same,"viability, T/C",[26],89%
same,"viability, T/C",[27],80.2%
same,"viability, T/C",[28],75.4%
same,"viability, T/C",[29],73%
same,"viability, T/C",[30],13.6%
same,"viability, T/C",[31],78.5%
same,"viability, T/C",[32],77.1%
same,"viability, T/C",[33],73.9%
same,"viability, T/C",[34],69.7%
same,"viability, T/C",[35],63.3%
same,"viability, T/C",[36],14.1%
C[C@@H](NC(=O)c1ncnc(N)c1Cl)c1ncc(C(=O)Nc2cc(C(F)(F)F)c(Cl)cn2)s1 + CC(Nc1ccc2c(c1)OCCn1cc(N3C(=O)OCC3C(F)F)nc1-2)C(N)=O,IC50,second compound 0.00316 µM,> 10 µM
same,IC50,second compound 0.01 µM,> 10 µM
same,IC50,second compound 0.0316 µM,> 10 µM
same,IC50,second compound 0.1 µM,8.97 µM
same,IC50,second compound 0.316 µM,7.88 µM
same,IC50,second compound 1 µM,4.87 µM
same,"viability, T/C",[1],114%
same,"viability, T/C",[2],129%
same,"viability, T/C",[3],110%
same,"viability, T/C",[4],121%
same,"viability, T/C",[5],90.8%
same,"viability, T/C",[6],75.3%
same,"viability, T/C",[7],116%
same,"viability, T/C",[8],108%
same,"viability, T/C",[9],111%
same,"viability, T/C",[10],118%
same,"viability, T/C",[11],101%
same,"viability, T/C",[12],66.7%
same,"viability, T/C",[13],99.7%
same,"viability, T/C",[14],124%
same,"viability, T/C",[15],119%
same,"viability, T/C",[16],110%
same,"viability, T/C",[17],97.9%
same,"viability, T/C",[18],63.6%
same,"viability, T/C",[19],116%
same,"viability, T/C",[20],93.3%
same,"viability, T/C",[21],101%
same,"viability, T/C",[22],95.9%
same,"viability, T/C",[23],78%
same,"viability, T/C",[24],46.4%
same,"viability, T/C",[25],94%
same,"viability, T/C",[26],97.5%
same,"viability, T/C",[27],96.4%
same,"viability, T/C",[28],87%
same,"viability, T/C",[29],75.2%
same,"viability, T/C",[30],43.5%
same,"viability, T/C",[31],83%
same,"viability, T/C",[32],88.8%
same,"viability, T/C",[33],80.7%
same,"viability, T/C",[34],77.2%
same,"viability, T/C",[35],62.3%
same,"viability, T/C",[36],29.7%
